PubChem BioAssay (NCI)
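A five-concentration, 48-hour dose response in 96-well plates underlies each endpoint, interpolated linearly between surrounding concentrations. TGI marks complete inhibition of growth.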

What was measured:
Test in all cases: growth of human tumour cells (NCI), 48 h
[1] = test system: 786-0 renal
[2] = test system: A498 renal
[3] = test system: A549 NSCLC
[4] = test system: ACHN renal
[5] = test system: BT-549 breast
[6] = test system: CAKI-1 renal
[7] = test system: CCRF-CEM leukemia
[8] = test system: COLO 205 colon
[9] = test system: DU-145 prostate
[10] = test system: EKVX NSCLC
[11] = test system: HCT-116 colon
[12] = test system: HCT-15 colon
[13] = test system: HL-60(TB) leukemia
[14] = test system: HOP-62 NSCLC
[15] = test system: HOP-92 NSCLC
[16] = test system: HS 578T breast
[17] = test system: HT29 colon
[18] = test system: IGROV1 ovarian
[19] = test system: K-562 leukemia
[20] = test system: KM12 colon
[21] = test system: LOX IMVI melanoma
[22] = test system: M14 melanoma
[23] = test system: MALME-3M melanoma
[24] = test system: MCF7 breast
[25] = test system: MDA-MB-231 breast
[26] = test system: MDA-MB-435
[27] = test system: MOLT-4 leukemia
[28] = test system: NCI-H226 lung
[29] = test system: NCI-H23 lung
[30] = test system: NCI-H460 lung
[31] = test system: NCI-H522 lung
[32] = test system: NCI/ADR-RES ovarian
[33] = test system: OVCAR-3 ovarian
[34] = test system: OVCAR-4 ovarian
[35] = test system: OVCAR-5 ovarian
[36] = test system: OVCAR-8 ovarian
[37] = test system: PC-3 prostate
[38] = test system: RPMI-8226 leukemia
[39] = test system: RXF 393 renal
[40] = test system: SF-268 CNS
[41] = test system: SF-295 CNS
[42] = test system: SF-539 CNS
[43] = test system: SK-MEL-2 melanoma
[44] = test system: SK-MEL-28 melanoma
[45] = test system: SK-MEL-5 melanoma
[46] = test system: SK-OV-3 ovarian
[47] = test system: SN12C renal
[48] = test system: SNB-19 CNS
[49] = test system: SNB-75 CNS
[50] = test system: SR leukemia
[51] = test system: SW-620 colon
[52] = test system: T-47D breast
[53] = test system: TK-10 renal
[54] = test system: U251 CNS
[55] = test system: UACC-257 melanoma
[56] = test system: UACC-62 melanoma
[57] = test system: HCC-2998 colon
[58] = test system: UO-31 renal

In the case of `CN(C)CCCc1c2ccccc2nc2ccc(Cl)cc12`, the TGI [1] is reported as 24.4 µM, the TGI [2] is reported as 34.2 µM and the TGI [3] is reported as 28.3 µM. For the same compound, the TGI [4] was 33.6 µM, the TGI [5] was 38.2 µM and the TGI [6] was 31.4 µM. For the same compound, the TGI [7] was 35.8 µM, the TGI [8] was 29.8 µM and the TGI [9] was 58.7 µM. The TGI [10] was 35.1 µM, the TGI [11] was 25.4 µM and the TGI [12] was 93.7 µM. It also gave a TGI [13] of 40.3 µM, a TGI [14] of 30 µM and a TGI [15] of 23.1 µM. The TGI [16] was 34.4 µM, the TGI [17] was 28.5 µM and the TGI [18] was 31 µM. The TGI [19] was 67.7 µM, the TGI [20] was 32.5 µM and the TGI [21] was 29.1 µM. The TGI [22] was 27.8 µM, the TGI [23] was 30.1 µM and the TGI [24] was 23.7 µM. The TGI [25] was 31.9 µM, the TGI [26] was 26.6 µM and the TGI [27] was 44.5 µM. The TGI [28] was 40.7 µM, the TGI [29] was 84.8 µM and the TGI [30] was 25.3 µM. The TGI [31] was 29.4 µM, the TGI [32] was 52 µM and the TGI [33] was 57.7 µM. For the same compound, the TGI [34] was 56.1 µM, the TGI [35] was 33.3 µM and the TGI [36] was 32.6 µM. For the same compound, the TGI [37] was 37 µM, the TGI [38] was 96.2 µM and the TGI [39] was 28.8 µM. It also gave a TGI [40] of 33.3 µM, a TGI [41] of 30.9 µM and a TGI [42] of 33.6 µM. It also gave a TGI [43] of 34.8 µM, a TGI [44] of 37.3 µM and a TGI [45] of 28.2 µM. The TGI [46] was 41.7 µM, the TGI [47] was 26.1 µM and the TGI [48] was 33.5 µM. The TGI [49] was 31.8 µM, the TGI [50] was 44.1 µM and the TGI [51] was 98.4 µM. For the same compound, the TGI [52] was > 100 µM, the TGI [53] was 27.1 µM and the TGI [54] was 24.8 µM. The TGI [55] was 26.4 µM and the TGI [56] was 34.2 µM.
`O=C1/C(=C/c2ccc(O)cc2)CCC1CNc1ccccc1` (configuration not stated) was tested, and the TGI [1] was 18.9 µM, the TGI [2] was 31.9 µM and the TGI [3] was 34.8 µM. It also gave a TGI [4] of 24.8 µM, a TGI [5] of 27.6 µM and a TGI [6] of 26.5 µM. For the same compound, the TGI [7] was 4.54 µM, the TGI [8] was 16.1 µM and the TGI [9] was 16.9 µM. It also gave a TGI [10] of 33.6 µM, a TGI [57] of 35.8 µM and a TGI [11] of 17.5 µM. For the same compound, the TGI [12] was 13.9 µM, the TGI [13] was 4.91 µM and the TGI [14] was 36.3 µM. For the same compound, the TGI [15] was 27.9 µM, the TGI [16] was 57.6 µM and the TGI [17] was 27.7 µM. For the same compound, the TGI [18] was 25.3 µM, the TGI [19] was 4 µM and the TGI [20] was 22.7 µM. It also gave a TGI [21] of 22.2 µM, a TGI [22] of 28.1 µM and a TGI [23] of 30.6 µM. For the same compound, the TGI [24] was 10.2 µM, the TGI [25] was 30.9 µM and the TGI [26] was 36.2 µM. It also gave a TGI [28] of 37.9 µM, a TGI [29] of 30.4 µM and a TGI [30] of 50.9 µM. It also gave a TGI [31] of 6.95 µM, a TGI [32] of 37.1 µM and a TGI [33] of 28.4 µM. The TGI [34] was 33.3 µM, the TGI [35] was 31.6 µM and the TGI [36] was 29.9 µM. The TGI [37] was 23.7 µM, the TGI [38] was 5.12 µM and the TGI [39] was 35.9 µM. The TGI [40] was 28.2 µM, the TGI [41] was 29.5 µM and the TGI [42] was 29.8 µM. For the same compound, the TGI [44] was 29.9 µM, the TGI [45] was 30.6 µM and the TGI [46] was 43.9 µM. It also gave a TGI [47] of 29.2 µM, a TGI [48] of 30.1 µM and a TGI [49] of 41.2 µM. It also gave a TGI [50] of 4.22 µM, a TGI [51] of 7.11 µM and a TGI [52] of 55.2 µM. For the same compound, the TGI [53] was 24.3 µM, the TGI [54] was 30.3 µM and the TGI [55] was 30.6 µM. It also gave a TGI [56] of 28.7 µM and a TGI [58] of 29 µM.
